Here are results for two molecules from patent US20110237606A1, “3-Deazaneplanocin Derivatives” (AGENCY OF SCIENCE, TECHNOLOGY AND RESEARCH, priority 2008, published 2011).

Where a name gives a salt, the structure may show the parent alone.

Series [1] deals with HCT-116 colorectal carcinoma xenograft. Briefly: In vivo efficacy in mouse HCT-116 colorectal carcinoma xenograft model. As for the experimental part:
The in vivo efficacy and toxicity of D3 was evaluated in a mouse HCT-116 colorectal carcinoma xenograft model.
Female athymic BALB/c nude mice (ARC, West Australia), 18-20 weeks of age, are fed with sterilized tap water (ad libitum water) and irradiated standard rodent diet consisting of: 19% protein, 5% fat, and 5% fiber. Mice are housed in individual ventilated cages on 12-hour light cycle at 21-22° C. and 40-60% humidity. Biological Resource Centre, Biopolis (BRC) complies with the recommendations of the guide for care and use of Laboratory Animals with respect to restraint, husbandry, surgical procedures, feed and fluid regulation, and veterinary care. The animal cares and use program (#070276) at BRC was Institutional Animal Care and Use Committee (IACUC) accredited.
D3 was provided in powder form, dissolved in 10% DMSO in sterile 1×PBS and stored in −20° C. Every mouse will receive a dose of 30-60 mg per kilogram body weight by intraperitoneal injection (ip).
Mice were implanted subcutaneously in the left flank with 5×10^6 cells of HCT-116 parental human colon carcinoma. The tumors were allowed to grow for 8 days and thereafter monitored every 2-3 days by caliper.
On the day 1, nude mice were divided into 2 groups according to tumor volume to ensure tumor volume evenly distributed into each group. Each group comprised 7 animals. Drug treatment was initiated on day 1. D3 is administered ip at doses of 30 mg/kg for 7 days followed by 60 mg/kg for another 5 days on once-a-day basis. Another group of mice received receive only vehicle by ip route. […] The study was terminated on Day 14.
Estimated tumor volume was calculated using the formula:
Tumor volume (mm^3)=(w^2×l)/2
where w=width and l=length in mm of an HCT-116 carcinoma.
Compound efficacy was assessed by the tumor growth inhibition (TGI) method in which tumor volume of treatment groups are compared to the vehicle controls. The percent tumor growth inhibition (% TGI) is calculated as follows:
% TGI=[…]×100
where: • Cday 1=median tumor volume for the control group (vehicle) on day 1 • Cday a=median tumor volume for the control group (vehicle) on day a • Tday a=median tumor volume for a treatment group on day a Animals classified as NTRD (non-treatment-related deaths) were excluded from TGI calculations.
The two sample t-test was used to determine the statistical significance of body weight changes and tumor volumes between groups. Statistical analyses were conducted at a p level of 0.05. SPSS was used for all statistical analyses and graphic presentations.

Series [2] deals with HCT115 ER-E2F1 cells. Kind of series: E2F1-induced apoptosis assay (ER-E2F1 activated by 4-OHT), FACS subG1. Type of series: cell-based. The source says: Two assays were used to measure the compound's activity in induce apoptosis. The first assay measures the activity of compound to activate E2F1-induced apoptosis. In this assay, transcription factor E2F1 was engineered with ER receptor ligand binding domain. Addition of 4-OHT will be able to activate ER-E2F1 complex activity.
Fluorescence activated cell sorting (FACS) also known as flow cytometry is the technique used to determine apoptosis in this set of experiments. Apoptosis is indicated by cell populations with DNA content in the subG1 range. To determine the activity of these compounds, the inventors used HCT115 ER-E2F1 cells to determine the activity of the compound in inducing E2F1-dependent apoptosis. In this assay, addition of 4-OHT ligand will activate E2F1. DZNep has been show previously to activate OHT-induced apoptosis in this system.

Series [3] is described as follows: Maximum tolerated dose in vivo. The note with it: compared to DZNep.

In the case of `Nc1ncnc2c1ncn2[C@@H]1CC[C@@H](O)[C@H]1O` [Compound I3, (1R,2S,3R)-3-(6-amino-9H-purin-9-yl)cyclopentane-1,2-diol], the tumor growth inhibition result in series [1] (I3 30 mg/kg, day 6) is “about 40%”; in series [1] (I3 30 mg/kg, day 8), about 43%; in series [1] (I3 30 mg/kg, day 10), about 31%; in series [1] (I3 30 mg/kg, day 13), about 35%; in series [1] (I3 30 mg/kg, end point day 14), about 34%; in series [1] (I3 60-80 mg/kg, day 6), “about 50%”. The tumor growth inhibition is about 65% in series [1] (I3 60-80 mg/kg, day 8); about 60% in series [1] (I3 60-80 mg/kg, day 10); about 68% in series [1] (I3 60-80 mg/kg, day 13); about 63% in series [1] (I3 60-80 mg/kg, end point day 14). Further, the “tumor volume versus vehicle group” value in series [1] (I3 30 mg/kg, p=0.037) is “statistically significantly smaller”; in series [1] (I3 60 mg/kg, p=0.000), “statistically significantly smaller”.

With `COCC1=C[C@@H](n2cnc3c(N)ncnc32)[C@H](O)[C@@H]1O` [Compound 25, (1S,2R,5R)-5-(6-amino-9H-purin-9-yl)-3-(methoxymethyl)cyclopent-3-ene-1,2-diol hydrochloride], the “ability to cause apoptosis in the induction of E2F1-dependent apoptosis” value in series [2] (compared with DZNep) was “as effectively as DZNep”. Moreover, the “E2F1 Induced apoptosis (+4-OHT) % Apoptosis” value in series [2] (with 4-OHT (value in parentheses)) is given as 60%. Further, the “tumor volume versus vehicle group” value in series [1] (D3 ip 30 mg/kg 7 days then 60 mg/kg 5 days, p=0.033) was “statistically significantly smaller”. Further, the tumor growth inhibition result in series [1] (D3 ip 30 then 60 mg/kg, day 7) was “about 49%”; in series [1] (D3 ip 30 then 60 mg/kg, day 9) it was about 56%; in series [1] (D3 ip 30 then 60 mg/kg, day 12) it was about 54%; in series [1] (D3 ip 30 then 60 mg/kg, end point day 14) it was about 54%. Besides, the “maximum tolerated dose (MTD)” value in series [3] is listed as “higher”.
